Holding throughout (assay type): in vivo
The subject of data set [1] is Echinochloa crus-galli var. crus-galli. The data set can be described thus: Test Example 3: herbicidal effect by application to foliage (Wagner pot, water depth 0.1-0.5 cm). The note with it: Nineteenth Table; application herbicide amount 320 g/ha. An outline of the steps: (§1)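 Alluvial soil in 1/10000 are Wagner pots, sown and grown 14 days in a 25–30 °C greenhouse. An emulsifiable concentrate diluted in water to the set dose (g/ha) was sprayed on stems and leaves. Effect scored three weeks later on a 0–5 scale: 5 = ≥90% herbicidal ratio, 0 = ≤5%.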

For the next data set, the system named is Cyperus difformis. The data set is described as above. Conditions: Nineteenth Table; application herbicide amount 320 g/ha. The procedure, abridged: as §1
For another data set, the system named is Leptochloa chinensis. The data set is described as above. The note with it: Nineteenth Table; application herbicide amount 320 g/ha. The procedure, abridged: as §1
In data set [2] the test system is directly sowed Oryza sativa. The data set can be described thus: Test Example 3: effect on crop by application to foliage (Wagner pot, water depth 0.1-0.5 cm). The note with it: Nineteenth Table; application herbicide amount 320 g/ha. An outline of the steps:
as §1

Another data set has as its system Scirpus juncoides. Kind of data set: Test Example 2: herbicidal activity, application during weed generation in submerged conditions. Conditions: Eighteenth Table; application herbicide amount 320 g/ha. The procedure, abridged:
(§2)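 Alluvial soil in Wagner pots flooded to 4 cm water depth; seeds sown mixed, grown in greenhouse at 25–30 °C. At one- to two-leaf stage, emulsion diluted with water to the set rate (g/ha) was applied to the water surface. Effect scored 0–5 by herbicidal ratio three weeks later.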

For another data set, the system named is Monochoria vaginalis. The description is as above. The note with it: Eighteenth Table; application herbicide amount 320 g/ha. An outline of the steps:
as §2

The subject of data set [3] is Echinochloa oryzacola Vasing. Described as above. Conditions: Eighteenth Table; application herbicide amount 320 g/ha. An outline of the steps: as §2
For a further data set, the system named is Amaranthus retroflexus. Kind of data set: Test Example 4: herbicidal effect by application to foliage (diluvial soil, plastic box). Conditions: application to foliage, application herbicide amount 320 g/ha. The procedure, abridged: (§3)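 Scores run from 0 (herbicidal ratio ≤5%) to 5 (≥90%, almost fully withered) and were assessed three weeks after foliar spraying. Seedlings had been raised for 14 days at 25-30° C in sterilized diluvial soil before treatment, with the emulsion diluted in water to the stated g/ha dose.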

A further data set relates to Stellaria media. The description is as above. Conditions: application to foliage, application herbicide amount 320 g/ha. An outline of the steps: as §3

Experimental findings from patent US9708314B2, “Heterocyclic amide compound” (NISSAN CHEMICAL INDUSTRIES, LTD., priority 2013, dated 2017) are described below.

Molecules are shown by their SMILES.

With `Cc1nnc(NC(=O)c2ccc(C(F)(F)F)n3c(-c4ccc(F)cc4)nnc23)o1` [1-044], the “H (Echinochloa crus-galli var. crus-galli) herbicidal ratio grade” value in [1] was 5 (Herbicidal ratio of 90% or more (almost completely withered)). In addition, in the data set with Cyperus difformis, the “E (Cyperus difformis) herbicidal ratio grade” value is 4 (Herbicidal ratio of 70% or more and less than 90%). Besides, the “D (Leptochloa chinensis) herbicidal ratio grade” value in the data set on Leptochloa chinensis is 4 (Herbicidal ratio of 70% or more and less than 90%). Moreover, in data set [2], the “b (directly sowed Oryza sativa) effect on crop grade” value was 3 (Herbicidal ratio of 40% or more and less than 70%). Moreover, the “B (Scirpus juncoides) herbicidal ratio grade” value in the data set on Scirpus juncoides is 3 (Herbicidal ratio of 40% or more and less than 70%). Besides, the “C (Monochoria vaginalis) herbicidal ratio grade” value in the data set with Monochoria vaginalis is 2 (Herbicidal ratio of 20% or more and less than 40%). The “A (Echinochloa oryzicola Vasing.) herbicidal ratio grade” value in [3] is 2 (Herbicidal ratio of 20% or more and less than 40%). Also, the “N (Amaranthus retroflexus) herbicidal effect” value with Amaranthus retroflexus was 5 (Herbicidal ratio of 90% or more (almost completely withered)). Moreover, in the data set on Stellaria media, the “P (Stellaria media) herbicidal effect” value is 4 (Herbicidal ratio of 70% or more and less than 90%).
On to `Cc1nnc(NC(=O)c2ccc(C(F)(F)F)n3c(COCC(F)(F)F)nnc23)o1` [1-020], for which the “H (Echinochloa crus-galli var. crus-galli) herbicidal ratio grade” value in data set [1] is 5 (Herbicidal ratio of 90% or more (almost completely withered)). Also, the “E (Cyperus difformis) herbicidal ratio grade” value in the data set on Cyperus difformis is 4 (Herbicidal ratio of 70% or more and less than 90%). The “D (Leptochloa chinensis) herbicidal ratio grade” value in the data set with Leptochloa chinensis was 4 (Herbicidal ratio of 70% or more and less than 90%). Besides, the “b (directly sowed Oryza sativa) effect on crop grade” value in [2] was 2 (Herbicidal ratio of 20% or more and less than 40%). Also, the “B (Scirpus juncoides) herbicidal ratio grade” value in the data set on Scirpus juncoides was 2 (Herbicidal ratio of 20% or more and less than 40%). In addition, the “C (Monochoria vaginalis) herbicidal ratio grade” value in the data set with Monochoria vaginalis was 2 (Herbicidal ratio of 20% or more and less than 40%). For the same compound, the “A (Echinochloa oryzicola Vasing.) herbicidal ratio grade” value in [3] was 2 (Herbicidal ratio of 20% or more and less than 40%). Besides, in the data set with Amaranthus retroflexus, the “N (Amaranthus retroflexus) herbicidal effect” value was 4 (Herbicidal ratio of 70% or more and less than 90%). Besides, the “P (Stellaria media) herbicidal effect” value in the data set on Stellaria media is 4 (Herbicidal ratio of 70% or more and less than 90%).
For the compound `Cc1nnc(NC(=O)c2ccc(C(F)(F)F)n3c(C[S+](C)[O-])nnc23)o1` (stereo not drawn) [1-036], the “H (Echinochloa crus-galli var. crus-galli) herbicidal ratio grade” value in data set [1] is given as 5 (Herbicidal ratio of 90% or more (almost completely withered)). The “E (Cyperus difformis) herbicidal ratio grade” value in the data set on Cyperus difformis is recorded as 5 (Herbicidal ratio of 90% or more (almost completely withered)). The “D (Leptochloa chinensis) herbicidal ratio grade” value in the data set on Leptochloa chinensis is 5 (Herbicidal ratio of 90% or more (almost completely withered)). Moreover, in data set [2], the “b (directly sowed Oryza sativa) effect on crop grade” value is 4 (Herbicidal ratio of 70% or more and less than 90%). Besides, the “B (Scirpus juncoides) herbicidal ratio grade” value in the data set with Scirpus juncoides was 2 (Herbicidal ratio of 20% or more and less than 40%). In addition, the “C (Monochoria vaginalis) herbicidal ratio grade” value with Monochoria vaginalis is 4 (Herbicidal ratio of 70% or more and less than 90%). Besides, in data set [3], the “A (Echinochloa oryzicola Vasing.) herbicidal ratio grade” value is 3 (Herbicidal ratio of 40% or more and less than 70%). Moreover, the “N (Amaranthus retroflexus) herbicidal effect” value with Amaranthus retroflexus is given as 5 (Herbicidal ratio of 90% or more (almost completely withered)). Further, the “P (Stellaria media) herbicidal effect” value with Stellaria media is recorded as 5 (Herbicidal ratio of 90% or more (almost completely withered)).
